What all share (assay type): cell-based, human
The test system of one experiment is BeWo cells. Nature of the experiment: Expression of trophoblast stemness and differentiation genes in BeWo cells treated with EGF and chemical inhibitors. The method, then:
FIGS. 6A to 6I show the regulation of trophoblast stemness and differentiation by antagonism between ΔNp63α and GCM1. […] ITGA6-positive term CTBs were cultured in complete TS medium for 5 days and then maintained in the same medium or incomplete medium (vehicle alone without EGF and chemical inhibitors) for an additional 7 days. Cells were subjected to immunofluorescence microscopy of ΔNp63α, GCM1, and hCGβ. […] BeWo cells were incubated in complete or incomplete TS medium supplemented with the indicated growth factor or chemical inhibitor(s) for 24 h. Cells were harvested for quantitative RT-PCR analysis of the indicated stemness or differentiation genes. […] BeWo cells were treated with the indicated concentration of VPA for 24 hours and then harvested for immunoblotting and quantitative RT-PCR analyses of GCM1, ΔNp63α, and hCGβ. […] BeWo cells were transfected with 4XCSL-luciferase in the presence or absence of 2 mM VPA for 48 hours, followed by luciferase assays. […] 293T cells were transfected with pHA-GCM1 and pNotch1IC-FLAG for 48 hours, followed by coimmunoprecipitation analysis and confocal microscopy using FLAG and HA mAbs and GCM1 Ab. […] EGFP-positive mock or Notch1IC-FLAG-expressing BeWo cells were treated with or without 50 μM FSK for 24 h, followed by immunoblotting and quantitative RT-PCR analyses of GCM1, hCGβ or HTRA4. […] BeWo cells were treated with or without 1 mM VPA in the presence or absence of 20 μM MG132 for 8 h and then subjected to immunoblotting analysis of GCM1 and Notch1IC. […] The EGFP-positive mock or Notch1IC-FLAG-expressing BeWo cells were transfected with the GCM1 promoter reporter plasmid E1bLUCGCM1-2K for 48 h and then subjected to luciferase assays. […] BeWo cells and ITGA6-positive term CTBs were cultured under normoxic or hypoxic conditions for 72 h and 7 days, respectively. Cells were then harvested for quantitative RT-PCR analysis of GCM1, ΔNp63α, HTRA4, hCGβ, and MKI67. Means and standard deviations obtained from three independent experiments are presented.
To study the effect of EGF and chemical inhibitors on trophoblast differentiation, BeWo cells were cultured in the complete TS medium or in the incomplete TS medium with EGF alone or the indicated chemical inhibitor(s) for 24 h. Cells were then harvested for quantitative RT-PCR or immunoblotting analysis of expression of ΔNp63α, eomesodermin (EOMES), E74-like factor 5 (ELF5) or GCM1 and its target genes.

The subject of the next experiment is JEG3 cells. Nature of the experiment: Immunoblotting and quantitative RT-PCR of trophoblast differentiation and stemness genes in JEG3 cells. The settings on record: 50 μM FSK or 1 mM DB-cAMP. An excerpt: FIGS. 2A to 2I show the physical and functional interaction between ΔNp63α and GCM1. […] First-trimester and term placental sections were stained with ΔNp63α and GCM1 antibodies (Abs) for immunofluorescence microscopy. Boxed areas are shown at higher magnification and presented below. Arrowhead, asterisk, and arrow indicate trophoblasts expressing ΔNp63α, GCM1, and both, respectively. Nuclei were stained with DAPI. Term placental sections were stained with CK7 Ab for trophoblasts and normal mouse IgG (M-IgG) and rabbit IgG (R-IgG) for negative controls. […] Mock and ΔNp63α-FLAG-expressing BeWo cells were subjected to immunoblotting (left) and quantitative RT-PCR (right) analyses of GCM1, HTRA4, and hCGβ proteins and transcripts. […] BeWo cells stably expressing scramble or GCM1 shRNA were subjected to immunoblotting (left) and quantitative RT-PCR (right) analyses of GCM1 and ΔNp63α proteins and transcripts. […] JEG3 cells were mock treated (DMSO or control buffer (CTRL)) or treated with 50 μM FSK or 1 mM DB-cAMP for 24 h, followed by immunoblotting and quantitative RT-PCR analyses of the indicated trophoblast differentiation and stemness proteins or transcripts. […]
FIGS. 3A to 3I show reciprocal regulation of GCM1 and ΔNp63α activities in trophoblast differentiation. […] Cell fusion was quantified by fusion index. […]
(In general: In western blotting, separated proteins are transferred to a membrane and probed.)

The subject of a further experiment is Notch signaling. Nature of the experiment: Notch reporter (4xCSL-luciferase) assay. The settings on record: BeWo cells; 2 mM VPA, 48 hours (FIG. 6D). How it is done:
FIGS. 6A to 6I show the regulation of trophoblast stemness and differentiation by antagonism between ΔNp63α and GCM1. […] ITGA6-positive term CTBs were cultured in complete TS medium for 5 days and then maintained in the same medium or incomplete medium (vehicle alone without EGF and chemical inhibitors) for an additional 7 days. Cells were subjected to immunofluorescence microscopy of ΔNp63α, GCM1, and hCGβ. […] BeWo cells were incubated in complete or incomplete TS medium supplemented with the indicated growth factor or chemical inhibitor(s) for 24 h. Cells were harvested for quantitative RT-PCR analysis of the indicated stemness or differentiation genes. […] BeWo cells were treated with the indicated concentration of VPA for 24 hours and then harvested for immunoblotting and quantitative RT-PCR analyses of GCM1, ΔNp63α, and hCGβ. […] BeWo cells were transfected with 4XCSL-luciferase in the presence or absence of 2 mM VPA for 48 hours, followed by luciferase assays. […] EGFP-positive mock or Notch1IC-FLAG-expressing BeWo cells were treated with or without 50 μM FSK for 24 h, followed by immunoblotting and quantitative RT-PCR analyses of GCM1, hCGβ or HTRA4. […] Cells were then harvested for quantitative RT-PCR analysis of GCM1, ΔNp63α, HTRA4, hCGβ, and MKI67. […]

The test system of a further experiment is ST-TS^Term#2 cells. Nature of the experiment: STB differentiation from TS^Term#2 cells with cyclocreatine. The settings on record: TS^Term#2 cells induced into STBs for 72 h with cyclocreatine (FIG. 11H). An excerpt: FIGS. 11A to 11I show the regulation of STB differentiation by the GCM1-CKMT1 axis. […] TS^Term#1, TS^Term#2, and TS#1^GCM1-KO cells and their derivative STBs were subjected to RNA-seq analysis. […] TS^Term#1, TS^Term#2, and TS^Term#3 cells and their derivative STBs were subjected to immunoblotting and quantitative RT-PCR analyses of GCM1, hCGβ or CKMT1 proteins and transcripts. […] Scramble control and CKMT1-knockdown TS^Term#2 cells and their derivative STBs were stained with MitoTracker and CKMT1 Ab for immunofluorescence microscopy. Scale bars in FIGS. 11D and 11E, 100 μm. […] Scramble control and CKMT1-knockdown TS^Term#2 cells and their derivative STBs were subjected to immunoblotting and quantitative RT-PCR analyses of GCM1, hCGβ, LHB or CKMT1 proteins or transcripts. In a separated experiment, cells were stained with E-cadherin Ab for cell fusion analysis. Syncytial margins are marked with a stippled line. Cell fusion efficiency was measured by fusion index or the distribution of syncytia containing varying numbers of nuclei. Scale bar, 100 μm. […] Mock (ST)- or cyclocreatine-treated TS^Term#2 cells (ST+Cyclo-Cr) were induced into STBs for 72 h, followed by immunoblotting analysis of hCGβ protein. […]

Setting [1] is: single agent in incomplete TS medium, 24 h (FIG. 6B).
[2] abbreviates: VPA 24 hours, dose-dependent (FIG. 6C).
Setting [3] is: EGF alone in incomplete TS medium, 24 h (FIG. 6B).

Turning to `Cc1c[nH]c(-c2cnc(NCCNc3ccc(C#N)cn3)nc2-c2ccc(Cl)cc2Cl)n1` [CHIR99021], in the experiment with BeWo cells (setting [1]), the “expression of ELF5, TEAD4, and AXIN2” value is recorded as “upregulation”; the “expression of WNT10B” value was “downregulation”.

`CCCC(=O)Nc1ncnc2c1ncn2[C@@H]1O[C@@H]2COP(=O)(O)O[C@H]2[C@H]1OC(=O)CCC` [DB-cAMP, dibutyryl-cAMP]: in the experiment on JEG3 cells (24 h (FIG. 2I)), the “expression of ΔNp63α and trophoblast stemness genes ELF5, EOMES, and TEAD4” value was “decreased expression”. The “expression of GCM1 and its target genes syncytin-1 (SYN1), hCGβ, HTRA4, PGF, and WNT10B” value in the experiment with JEG3 cells (24 h, immunoblotting and qRT-PCR (FIG. 2I)) is recorded as “increased expression”.

As for `CCCC(CCC)C(=O)O` [VPA, valproic acid], in the experiment on BeWo cells (setting [2]), the “GCM1 and hCGβ expression” value was “suppress”; the ΔNp63α expression entry was “increase”. Also, the “Notch reporter plasmid p4×CSL-luciferase activity” value in the experiment with Notch signaling is given as “transactivated”.

Turning to `NC1=NCCN1CC(=O)O` [cyclocreatine], the “hCGβ, SYN1, and LHB expression” value in the experiment with ST-TS^Term#2 cells was “suppressed”.

Take “epidermal growth factor (NSDSECPLSHDGYCLHDGVCMYIEALDKYACNCVVGYIGERCQYRDLKWWELR; not fully specified; Epidermal growth factor; UniProt P01133 971-1023, looked up) [EGF, growth factor in complete TS medium]”: in the experiment with BeWo cells (setting [3]), the “GCM1 and WNT10B expression” value is reported as “suppressed”; the hCGβ expression entry was “enhanced”.

The record behind these values is patent US20220155314A1, “TROPHOBLAST STEM CELL, METHODS OF PREPARATION AND USES THEREOF” (Academia Sinica, priority 2020, published 2022).
